# Data published in patent publication US20240350669A1, “INHIBITION OF KYNURENINE SYNTHESIS AND/OR SIGNALING TO TREAT LEUKEMIA AND MYELODYSPLASIA” (THE TRUSTEES OF COLUMBIA UNIVERSITY IN THE CITY OF NEW YORK, priority 2022, published 2024).
# What was measured:
# [1] = test system: patient-derived AML cells; assay: Patient-derived AML xenograft in NSG mice, epacadostat chow and/or Ara-C; type: in vivo, mouse
# Description: (§1) Epacadostat (AdooQ Cat #A15554)-treatment: for the WT C57BL/6J mice, treatment started at the same time than MLL/AF9 cells were transplanted. For the patient-derived AML cells (PDX) transplanted into NSG mice, treatment started 8 weeks after transplant, at the same time than Ara-C and during 3 weeks. Mice were supplied with ad libitum epacadostat-supplemented diet (Research Diets Inc.) at 800 mg/kg (low-dose) or 1.6 g/kg (high-dose). For the PDX transplanted into NSGS mice, treatment started 3 weeks after transplant, by daily gavage at 300 mg/kg (InvivoChem Cat #: V0942, dissolved in 10% DMSO, 40% PEG 300 and 50% NaCl 0.9%) for 2 weeks.
# For the combination therapy (Epacadostat+chemotherapy) performed at the University of Pennsylvania, patient-derived AML cells were transplanted as previously reported (48). Briefly 6 weeks old NSG males were sublethally treated with busulfan (30 mg/kg) 24 h before transplant and 5×10^6 patient-derived AML cells were injected i.v. Engraftment was assessed, and mice were randomized at 7.5 weeks by BM aspirate as previously described. Randomized mice were treated with vehicle, cytosine arabinoside (Ara-C, 60 mg/kg/day×5 days i.p.), epacadostat chow (1.6 g/kg ad libitum) or both Ara-C and epacadostat chow for 3 weeks.
# [2] = test system: patient-derived AML cells; assay: Patient-derived AML xenograft (PDX) in NSGS mice, epacadostat daily gavage; type: in vivo, mouse; conditions: daily gavage 300 mg/kg
# Description: as §1
# (§2) 4-6 weeks old NSG (CDX model) or NSGS (PDX model) mice were pre-conditioned with sublethal (1.4 Gy) total-body irradiation. 24 h after, 1×10^6 OCI-AML3 or 2×10^5 human BM CD34^+ (healthy) or primary AML patient samples were injected i.v. Engraftment levels were monitored and mice were randomized after BM aspiration 3-4 weeks later and immunophenotyped by the presence of mCD45 (BioLegend Cat #103133, RRID: AB_10899570), hCD45 (BioLegend Cat #368512, RRID: AB_2566372), hCD33 (BioLegend Cat #303404, RRID: AB_314348), hCD34 (BioLegend Cat #343518, RRID: AB_1937203) cell populations. For the low-burden PDX model (kynurenine injections), mice were treated 1 week after transplant.
# (§3) Quantification in serum from peripheral blood (mice) or BM plasma (patients) of Kyn and Trp was assessed by ELISA using independent kits (ImmunoSmol) as per manufacturer's instructions. The ratio between Kyn and Trp levels is shown. SAA3 in serum (murine SAA3 ELISA Kit Millipore) and SAA1 in patient BM plasma (Amyloid A1 DuoSet ELISA Kit (R&D) were assessed as per manufacturer's instructions.
# (§4) Cell labelling was done by i.p. injection of mice with 50 mg/kg of freshly prepared 5-Ethynyl-2′-deoxyuridine-Edu-(Cayman Chemical Company Cat #20518). After 3-4 h, BM was harvested, and human cells were negatively selected by mouse cell depletion using mouse CD45 magnetic beads (Miltenyi). The human BM cells were then stained CD45 and CD33 to identify the leukemic blast. Cell cycle/proliferation analysis was performed using the Click-iT Plus EdU Flow Cytometry Assay Kit (Invitrogen, Cat #C10420) following manufacturers' instructions. Fixable viability dye (Biolegend) was used to discriminate the death population. Single color controls were used to set compensations and fluorescence minus one control were used to set gates. Analysis was performed with FlowJo software.
# IDO1 [3] = assay: Circulating Kyn and Trp levels (ELISA) in WT mice on epacadostat diet; type: in vivo, mouse
# Description: as §1, §3
# MLL/AF9 AML cells = assay: MLL/AF9 syngeneic leukemia model in non-irradiated WT mice; type: in vivo, mouse
# Description: PTH bone-anabolic treatment: mice were injected intraperitoneally (i.p.) with PTH (Bachem) at 80 μg/kg/day in PBS. Injections started 1 week before MLL/AF9 injection and continued along 2-3 more weeks until mice were harvest.
# SB224289-SB9-(TOCRIS Cat #1221) treatment: mice were injected intraperitoneally (i.p.) daily with SB9 (5 mg/kg in 0.9% NaCl) 1 week after leukemia injection and for the duration of the experiment. Assuming a 20 g body weight (BW) and a 2 ml total blood volume per mouse—as well as an even distribution of the drug-systemic concentration of SB9 should be approximately 50 μg/ml. Based on the MW of SB9 (557.09), the final concentration—at equal distribution—in blood should be 8.97521e-05 M (≈90 μM).
# as §1
# All leukemia models were introduced by intravenous (i.v.) injection and transplanted into non-irradiated secondary recipient experimental animals. BALB/c mice were used for the WEHI-3B leukemia model (0.5×10^6/cells/mouse) and C57BL/6J mice for MLL/AF9-dsRed (0.2×10^6/cells/mouse). Leukemia progression was assessed by fluorescence (MLL/AF9 dsRed) using the IVIS-Spectrum Optical Imaging System (Caliper, Perkin Elmer). Mice were shaved to reduce light attenuation.
# IDO1 [4] = assay: Epacadostat in vitro: kynurenine secretion and cell cycle progression; type: cell-based
# [5] = Systemic toxicity observation in WT mice on epacadostat diet; type: in vivo; conditions: ad libitum diet 0.8 g/kg
# Description: as §1
# WEHI-3B cells = assay: Ido1 mRNA in WEHI-3B cells exposed to recombinant SAA; type: cell-based, mouse; conditions: o/n treatment
# Description: (§5) Treatments with recombinant proteins: human IL-1α, IL-1β, IL-6, IL-33, IL-34, CXCL1, CXCL3, CXCL5, CXCL8, CCL2, CCL20, Apo-SAA1 (all from Peprotech) and recombinant mouse SAA3 (Cusabio) were performed by o/n treatment with 50 ng/ml of the corresponding protein. SAA1 treatment of human AML cell lines was done with 1 μg/ml for 24, 48 or 72 h. Treatment of primary human MDS or AML lineage-depleted BM-MNCs was done with 5 μg/ml for 24 h. Treatment of PDX isolated human total BM cells was done with 1 μg/ml for 24 h.
# (§6) RNA isolation, cDNA preparation and real-time PCR analyses were carried out following standard protocols. Total RNA from cortical bone (clean, flushed femurs, were centrifugated 20 seconds at 10.000 g's to remove any remaining BM) was extracted using TRIzol (Invitrogen) followed by RNA clean-up using PureLink RNA Mini Kit (Ambion, Invitrogen). mRNA was reversed transcribed using random hexamers RNA-to-cDNA kit (Takara). Specific forward and reverse primers were used in conjunction with PowerUp SYBR Green Master Mix (Applied Biosystems) for quantitative PCR. Expression levels were analyzed using the 2^−ΔΔCt method and were normalized for the expression of the housekeeping gene Hprt unless otherwise stated.
# WEHI-3B = assay: WST-8 proliferation of mouse WEHI-3B AML cells exposed to SAA3; type: cell-based; conditions: SAA3 1 μg/ml, 24-72 h, versus vehicle
# [6] = test system: human BM cells from PDX healthy or PDX AML mice; assay: Ex vivo total human BM cells isolated from PDX mice exposed to SAA1; type: cell-based; conditions: SAA1 1 μg/ml, 24 h
# Description: as §5
# (§7) Cell proliferation was performed by using Cell Counting Kit 8 (WST-8, Abcam) as per manufacturer's instructions. Briefly, 0.03×10^6 cells were seeded on tissue-culture clear bottom microplates (Corning) in their corresponding media (100 μl). When indicated, cells were treated with the indicated compounds and for the indicated time points. 10 μl/well of WST-8 solution was added and incubated for 2 h at 37° C. before measuring absorbance at 460 nm. For each experiment, the absorbance of the blank wells (growth media and vehicle/treatment) was subtracted from the values for those wells with cells.
# Ex vivo xenografts (healthy CD34^+ versus patient-derived AML): total BM from NSGS mice was depleted of mouse cells with mouse CD45 magnetic beads (Miltenyi Biotec Cat #130-052-301, RRID: AB_2877061) and negatively selected human cells used.
# OCI-AML3 cells = assay: IDO1 mRNA in OCI-AML3 cells exposed to recombinant osteoblast-secreted molecules; type: cell-based, human; conditions: o/n treatment, 50 ng/ml
# Description: as §5, §6
# AML and MDS BM MNCs = assay: Ex vivo lineage-depleted AML and MDS patient BM MNCs exposed to SAA1; type: cell-based, human; conditions: SAA1 5 μg/ml, 24 h
# Description: as §5, §7
# Ex vivo primary AML and MDS patient's samples: MNCs from fresh BM patients' aspirates were isolated as previously described and depleted from mature hematopoietic cells (lineage Cell Depletion Kit, Miltenyi Biotec Cat #130-092-211). […]
# [7] = test system: human AML and MDS cell lines; assay: mRNA levels in human AML and MDS cell lines exposed to SAA1; type: cell-based
# Description: as §5, §6
# [8] = test system: leukemic blasts (hCD45+CD33+); assay: In vivo SAA1 treatment of PDX mice, Edu cell cycle analysis of leukemic blasts; design: species or system mouse
# Description: SAA1 (Peprotech Cat #300-53) treatment: for short-term treatment (2 days), mice were injected intra venous (i.v.) 72 h and 48 h before harvesting. For long-term treatment (8-days), mice received daily i.v. injections. In order to get the same SAA1 concentration in blood that the one used in vitro, we used a dosage of 100 μg/kg of SAA1, diluted in 0.9% NaCl. Assuming a 20 g body weight, 2 ml total blood volume, and an even distribution in the mouse, systemic concentration of SAA1 should be approximately 1 μg/ml.
# as §2, §4
# human AML cell lines = assay: WST-8 proliferation of human AML cell lines exposed to SAA1; type: cell-based; conditions: SAA1 1 μg/ml, 24-72 h, versus vehicle
# Description: as §5, §7
# In vitro: the indicated cell lines were incubated in reduced-serum media and exposed to SAA1 (1 μg/ml) for the 24-72 h as indicated.
# [9] = day 22 after initiating therapy, Ara-C 60 mg/kg/day x 5 days, epacadostat chow 1.6 g/kg 3 weeks
# [10] = SAA1 i.v., 2- and 8-day treatments
molecule,measurement,setting,value
NS(=O)(=O)NCCNc1nonc1C(=NO)Nc1ccc(F)c(Br)c1 [epacadostat],leukemia burden in both the bone marrow and spleen,"[1]; AML patient-derived xenograft models, summary statement",significantly decreases leukemia burden
same,leukemic burden in BM,[1]; [9],decreased leukemic burden
same,leukemic burden in spleen,[1]; [9],more pronounced effect in the spleen
same,G0-G1 and G2-M populations of leukemic blasts,[2],remained unchanged
same,leukemic blasts apoptosis,[2],increased leukemic blasts apoptosis
same,reduction in Kyn/Trp levels in blood,[2]; 12 days,~20%
same,reduction in AML BM burden,"[2]; 12 days, versus vehicle",~20%
same,proliferation of leukemic blasts (hCD45+CD33+),[2]; in vivo cell cycle,less proliferative
same,reduction in serum Kyn levels,"IDO1 [3]; MLL/AF9-injected mice, diet 1.6 g/kg",35%
same,effect on the 1.5-fold-increase in systemic Kyn/Trp levels of MLL/AF9 leukemic mice,"IDO1 [3]; MLL/AF9 leukemic mice, diet 0.8 g/kg",did not reduce
same,reduction in basal circulating Kyn/Trp levels,"IDO1 [3]; no leukemia, ad libitum diet 0.8 g/kg",54%
same,reduction in circulating kynurenine and tryptophan levels,"IDO1 [3]; wild type mice, dose not stated",41%
same,survival,"MLL/AF9 AML cells; AML-injected mice, dose not stated",increases in survival
same,leukemia progression,MLL/AF9 AML cells; epacadostat diet 0.8 g/kg,tendency towards a slower leukemia progression
same,survival,MLL/AF9 AML cells; epacadostat diet 0.8 g/kg,slight-yet significant-increase in survival
same,AML burden,MLL/AF9 AML cells; epacadostat diet 1.6 g/kg,significant delay in AML burden
same,survival,"MLL/AF9 AML cells; epacadostat diet 1.6 g/kg, compared to the lower dose",significantly prolonged survival
same,cell cycle progression,IDO1 [4],impaired
same,kynurenine secretion,IDO1 [4],abrogated
same,systemic toxicity,[5],did not show any obvious systemic toxicity
"SAA3: recombinant mouse SAA3 (Cusabio), murine orthologue of SAA1 (protein, UniProt P04918 19-122, looked up) Serum amyloid A-3 protein: QRWVQFMKEAGQGSRDMWRAYSDMKKANWKNSDKYFHARGNYDAARRGPGGAWAAKVISDAREAVQKFTGHGAEDSRADQFANEWGRSGKDPNHFRPAGLPKRY",Ido1 expression in WEHI-3B cells,WEHI-3B cells,upregulated Ido1 expression
same,proliferation of AML cell lines,WEHI-3B,increased proliferation
"SAA1: recombinant human acute-phase protein serum amyloid A1 (Peprotech) (protein, UniProt P0DJI8 19-122, looked up) Serum amyloid A-1 protein: RSFFSFLGEAFDGARDMWRAYSDMREANYIGSDKYFHARGNYDAAKRGPGGAWAAEVITDARENIQRFFGHGAEDSLADQAANEWGRSGKDPNHFRPAGLPEKY",proliferation of human cells from CD34+ healthy-injected mice,[6],unresponsive
same,proliferation of patient-derived cells from AML-injected mice,[6]; versus vehicle,high proliferative activity
same,CYP1A1 and CYP1A2 gene expression,[6]; PDX-AML versus CD34+ healthy-injected mice,only upregulated in response to SAA1 in the human BM cells isolated from the PDX-AML
same,IDO1 expression,[6]; PDX-AML versus PDX healthy cells,only upregulated in response to SAA1 in the PDX-AML isolated human cells
same,IDO1 expression in OCI-AML3 leukemic cells,OCI-AML3 cells,able to upregulate IDO1 expression
same,IDO1 mRNA levels in patient-derived BM MNCs,AML and MDS BM MNCs,increased
same,proliferation of lineage-depleted AML and MDS BM MNCs,AML and MDS BM MNCs,promoted proliferation
same,Ido1 expression in WEHI-3B cells,WEHI-3B cells,able to upregulate Ido1 expression
same,IDO1 expression across human AML cell lines and MDS-L,[7]; SAA1,observed across several human AML cell lines as well as the MDS-L cell line
same,expression of AHR target genes,[7]; SAA1 1 μg/ml o/n,upregulated most of the main AHR targets genes
same,% of Sub-G1 apoptotic cells,[8]; 8-day treatment,reduced
same,"proliferative rate of leukemic blasts (Edu+ cells, S-phase)","[8]; SAA1 100 μg/kg i.v., 2- and 8-day treatments",maintained and prominent increase
same,G0-G1 cells,[8]; [10],decrease
same,G2-M phase,[8]; [10],unvarying
same,increase in AML burden in the BM,[8]; completion of the 8-day treatment,1.5 fold
same,proliferation of AML cell lines,human AML cell lines,increased proliferation
